Experimental findings from BindingDB's records for doi:10.1016/j.bmcl.2006.10.030 (Paris-Sud University, 2007) are described below.

Bounds are passed on as bounds.

Chain of Triosephosphate isomerase (P60174 whole entry): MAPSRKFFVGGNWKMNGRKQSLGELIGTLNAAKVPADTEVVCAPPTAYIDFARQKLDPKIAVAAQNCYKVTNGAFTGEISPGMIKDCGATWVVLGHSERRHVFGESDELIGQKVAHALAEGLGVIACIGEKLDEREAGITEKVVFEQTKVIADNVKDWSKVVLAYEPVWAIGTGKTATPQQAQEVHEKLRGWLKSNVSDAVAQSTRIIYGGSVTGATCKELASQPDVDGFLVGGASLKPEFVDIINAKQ

This test concerns the target Triosephosphate isomerase (Homo sapiens, UniProt P60174). Briefly: Inhibition of triosephosphate isomerase.
With `O=C(COP(=O)(O)O)NO` [2-(hydroxyamino)-2-oxoethyl dihydrogen phosphate], the inhibition constant Ki (commonly the dissociation constant of the complex between target and ligand, obtained from inhibition or displacement) stood at 3 µM.

Consider `N=C(COP(=O)(O)O)NO` [Phosphoric acid mono-(N-hydroxycarbamimidoylmethyl) ester], for which the Ki was 4.5 µM.

Compound `NC(CC(=O)NO)P(=O)(O)O` (stereo not given) [hydrogen [1-azaniumyl-2-(hydroxycarbamoyl)ethyl]phosphonate] yielded an inhibition constant Ki of over 500 µM.

The compound `NNC(=O)COP(=O)(O)O` [Phosphoric acid monohydrazinocarbonylmethyl ester] returned an inhibition constant Ki of 111 µM.

In the case of `O=C(CCP(=O)(O)O)NO` [hydrogen 3-(hydroxyamino)-3-oxopropylphosphonate], the affinity corresponds to a Ki of 160 µM.
